Residues, ends and D or L forms follow the SMILES beside them. *: point of attachment. Cbz = O=C(OCc1ccccc1)*
How the values were obtained:
[1] = molecular target: T1, bacterially expressed ERK7 (Rattus norvegicus, UniProt Q9Z2A6); assay: ERK7 kinase assay, phosphorylation of GST-MBPtide, HRP-ELISA; format: biochemical; settings: purified ERK7 5 nM
T1 construct: HIS-tag; made in house; host or cells: bacteria
T1 sequence (Q9Z2A6 1-547): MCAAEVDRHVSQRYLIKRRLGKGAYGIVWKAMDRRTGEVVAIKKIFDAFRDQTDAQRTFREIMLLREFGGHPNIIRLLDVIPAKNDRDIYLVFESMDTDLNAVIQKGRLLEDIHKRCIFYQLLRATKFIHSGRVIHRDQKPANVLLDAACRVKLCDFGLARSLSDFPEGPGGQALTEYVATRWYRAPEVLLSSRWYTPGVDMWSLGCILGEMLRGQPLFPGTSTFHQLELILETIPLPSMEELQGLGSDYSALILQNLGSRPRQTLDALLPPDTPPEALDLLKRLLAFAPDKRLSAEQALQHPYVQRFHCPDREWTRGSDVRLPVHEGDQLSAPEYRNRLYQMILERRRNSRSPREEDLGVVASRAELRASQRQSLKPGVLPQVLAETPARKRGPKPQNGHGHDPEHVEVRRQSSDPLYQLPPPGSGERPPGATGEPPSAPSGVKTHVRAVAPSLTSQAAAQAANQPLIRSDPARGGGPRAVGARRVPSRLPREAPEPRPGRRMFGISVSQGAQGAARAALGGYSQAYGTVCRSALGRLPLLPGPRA
Description: FIG. 1: is a graph representing the determination of the KM of ATP for bacterially expressed ERK7. Purified ERK7 (5 nM) was incubated in the presence of increasing ATP concentrations. The concentration of ATP supporting maximal velocity of the kinase reaction is 1 mM. The concentration of ATP supporting half-maximal velocity (KM) is ˜100 μM. Background is the measured signal from reactions carried out in the presence of 200 mM EDTA, which eliminates kinase activity. The background has not been subtracted from the ERK7 signal. Phosphorylation of the immobilized GST-MBPtide was detected using the HRP-ELISA as described in Example 1.
Kinase assays were developed to measure the activity of rat ERK7 and human ERK8. Purified, recombinant ERK7 and ERK8 were obtained by introducing a HIS-tag in frame with the coding sequence of the kinases, expressing the proteins in bacteria and purifying the proteins over a NiNTA resin (Qiagen, Valencia, Calif.). […]
The kinase assays were performed in a 96 well format according to the following procedure. […] All assays measured the initial velocity of reaction. […] HRP activity was measured using Western Lightning Chemiluminescence Reagent (NEL102, PerkinElmer Life Sciences) according to manufacturer's protocol. Maximum and minimum activity is the relative luminescence detected in the presence of vehicle and 200 mM EDTA, respectively. […]

[2] = system: ERα-regulated transcription; assay: ERE-luciferase transcriptional analysis in MCF-7 stable lines; format: cell-based, human
[3] = system: ERα; assay: ERα protein levels by immunoblot in transfected BHK cells treated with proteasome inhibitor; format: cell-based, hamster; settings: presence and absence of estradiol
Description: BHK cells were transfected in 10 mm dishes with calcium phosphate and 1 μg of wild type or mutant ERα or FLAG-IκBα or HA-SF1 or HA-AR construct, 5 μg of a construct encoding a wild type or mutant kinase or vector control. At 8 h post transfection, the cells were washed with phosphate-buffered saline (PBS) and placed in Dulbecco's modified Eagle's medium (DMEM) with 5% fetal calf serum (FCS).

[4] = system: MAPK(ERK1/2); settings: cells expressing MAPK(ERK1/2); cited from earlier work
[5] = system: ERK7/8; settings: cited from earlier work

Structure (SMILES): Nc1ncnc2c1ncn2[C@@H]1O[C@H](COP(=O)(O)OP(=O)(O)OP(=O)(O)O)[C@@H](O)[C@H]1O [ATP]
- concentration supporting maximal velocity of the kinase reaction [1]: 1 mM
- Km ([1]; increasing ATP, read-out: KM (concentration supporting half-maximal velocity)): ~100 µM

Structure (SMILES): CC(C)C[C@@H](C=O)NC(=O)[C@H](CC(C)C)NC(=O)[C@H](CC(C)C)NC(=O)OCc1ccccc1 [MG132] (Cbz-Leu-Leu-Leu-aldehyde)
- effect on transcriptional response ([2]; MCF-7 cells stably expressing K43A-ERK7, ERE-luciferase reporter): not affected
- increase of transcriptional response to estradiol ([2]; MCF-7 control (vector) stable cells, ERE-luciferase reporter): ~3 fold
- effect on ERα protein levels [3]: increased ERα protein levels

Structure (SMILES): C=C1[C@@H](O)[C@@H]2O[C@]3(CC[C@H](/C=C/[C@@H](C)[C@@H]4CC(C)=C[C@@]5(O[C@H](C[C@@](C)(O)C(=O)O)CC[C@H]5O)O4)O3)CC[C@H]2O[C@@H]1[C@@H](O)C[C@H](C)[C@H]1O[C@@]2(CCCCO2)CC[C@H]1C [okadaic acid]
- effect on amount of TEY phosphorylated MAPK(ERK1/2) [4]: increases
- effect on ERK7/8 TEY phosphorylation [5]: no effect

— patent US20060141473A1, “Erk7 and erk8, novel diagnostic markers for cancer” (priority 2003, published 2006)
